Assays:
[1] = test system: Escherichia coli ATCC 25922; test: Minimum inhibitory concentration (MIC), CLSI broth micro-dilution, E. coli; assay type: cell-based; conditions: Escherichia coli, ATCC25922, 22 h, Table 6, cation adjusted Mueller Hinton Broth + 0.002% Tween-80, 35° C.
Method in brief: (§1)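 Colonies grown 20 h at 35° C on Trypticase Soy agar (MRSA) or Luria agar (E. coli) were suspended in cation-adjusted Mueller Hinton broth with 0.002% Tween-80. Suspensions were added at OD600 0.0005 to 10-point twofold compound dilutions, then incubated 22 h at 35° C.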

[2] = test system: Methicillin Resistant Staphylococcus aureus strain USA 200; test: Minimum inhibitory concentration (MIC), CLSI broth micro-dilution, S. aureus; assay type: cell-based; conditions: Staphylococcus aureus, MRSA / USA200; Table 6; MRSA USA 200; cation adjusted Mueller Hinton Broth + 0.002% Tween-80; 35° C., 22 hours
Method in brief: as §1

SMILES | MIC [1] [µM] | MIC [2] [µM]
Cc1nc(-c2cccc(OC(C)C)c2)ncc1C(=O)N[C@@H](CCN)C(=O)N(C)[C@@H]1C(=O)N[C@@H](C)C(=O)N[C@H](C(=O)NCC#N)Cc2ccc(OCCN)c(c2)-c2cc1ccc2OCCN (racemic) [Compound 251, rac-(8S,11S,14S)-3,18-bis(2-aminoethoxy)-N-(cyanomethyl)-11-methyl-14-[methyl-[rac-(2S)-4-amino-2-[[2-(3-isopropoxyphenyl)-4-methyl-pyrimidine-5-carbonyl]amino]butanoyl]amino]-10,13-dioxo-9,12-diazatricyclo[13.3.1.12,6]icosa-1(18),2(20),3,5,15(19),16-hexaene-8-carboxamide] | 1.1 | 0.067
CCCCc1ccc(-c2nc(C)c(C(=O)N[C@@H](CCN)C(=O)N(C)[C@@H]3C(=O)N[C@@H](C)C(=O)N[C@H](C(=O)NCC#N)Cc4ccc(OCCN)c(c4)-c4cc3ccc4OCCN)c(C)n2)cc1 (racemic) [Compound 255, rac-(8S,11S,14S)-3,18-bis(2-aminoethoxy)-N-(cyanomethyl)-11-methyl-14-[methyl-[rac-(2S)-4-amino-2-[[2-(4-butylphenyl)-4,6-dimethyl-pyrimidine-5-carbonyl]amino]butanoyl]amino]-10,13-dioxo-9,12-diazatricyclo[13.3.1.12,6]icosa-1(18),2(20),3,5,15(19),16-hexaene-8-carboxamide] | 0.066 | 0.0082
Cc1nc(-c2ccc(CC(C)C)cc2)nc(C)c1C(=O)N[C@@H](CCN)C(=O)N(C)[C@@H]1C(=O)N[C@@H](C)C(=O)N[C@H](C(=O)NCC#N)Cc2ccc(OCCN)c(c2)-c2cc1ccc2OCCN (racemic) [Compound 258, rac-(8S,11S,14S)-3,18-bis(2-aminoethoxy)-N-(cyanomethyl)-11-methyl-14-[methyl-[rac-(2S)-4-amino-2-[[2-(4-isobutylphenyl)-4,6-dimethyl-pyrimidine-5-carbonyl]amino]butanoyl]amino]-10,13-dioxo-9,12-diazatricyclo[13.3.1.12,6]icosa-1(18),2(20),3,5,15(19),16-hexaene-8-carboxamide] | 0.13 | 0.012
Cc1nc(-c2ccc3c(c2)CCCC3)nc(C)c1C(=O)N[C@@H](CCN)C(=O)N(C)[C@@H]1C(=O)N[C@@H](C)C(=O)N[C@H](C(=O)NCC#N)Cc2ccc(OCCN)c(c2)-c2cc1ccc2OCCN (racemic) [Compound 259, rac-(8S,11S,14S)-3,18-bis(2-aminoethoxy)-N-(cyanomethyl)-11-methyl-14-[methyl-[rac-(2S)-4-amino-2-[(4,6-dimethyl-2-tetralin-6-yl-pyrimidine-5-carbonyl)amino]butanoyl]amino]-10,13-dioxo-9,12-diazatricyclo[13.3.1.12,6]icosa-1(18),2(20),3,5,15(19),16-hexaene-8-carboxamide] | 0.26 | 0.025
Cc1nc(-c2ccc(CCC(C)C)cc2)nc(C)c1C(=O)N[C@@H](CCN)C(=O)N(C)[C@@H]1C(=O)N[C@@H](C)C(=O)N[C@H](C(=O)NCC#N)Cc2ccc(OCCN)c(c2)-c2cc1ccc2OCCN (racemic) [Compound 262, rac-(8S,11S,14S)-3,18-bis(2-aminoethoxy)-N-(cyanomethyl)-11-methyl-14-[methyl-[rac-(2S)-4-amino-2-[[2-(4-isopentylphenyl)-4,6-dimethyl-pyrimidine-5-carbonyl]amino]butanoyl]amino]-10,13-dioxo-9,12-diazatricyclo[13.3.1.12,6]icosa-1(18),2(20),3,5,15(19),16-hexaene-8-carboxamide] | 0.097 | 0.0081
C=Cc1ccc(-c2nc(C)c(C(=O)N[C@@H](CCN)C(=O)N(C)[C@@H]3C(=O)N[C@@H](C)C(=O)N[C@H](C(=O)NCC#N)Cc4ccc(OCCN)c(c4)-c4cc3ccc4OCCN)c(C)n2)cc1 (racemic) [Compound 265, rac-(8S,11S,14S)-3,18-bis(2-aminoethoxy)-N-(cyanomethyl)-11-methyl-14-[methyl-[rac-(2S)-4-amino-2-[[4,6-dimethyl-2-(4-vinylphenyl)pyrimidine-5-carbonyl]amino]butanoyl]amino]-10,13-dioxo-9,12-diazatricyclo[13.3.1.12,6]icosa-1(18),2(20),3,5,15(19),16-hexaene-8-carboxamide] | 0.41 | 0.068
CCCCc1ccc(-c2nc(C)c(C(=O)N[C@@H](CCN)C(=O)N(C)[C@@H]3C(=O)N[C@@H](C)C(=O)N[C@H](C(=O)NCC#N)Cc4ccc(OCCN)c(c4)-c4cc3ccc4OCCN)c(C)n2)cc1CCCC (racemic) [Compound 268, rac-(8S,11S,14S)-3,18-bis(2-aminoethoxy)-N-(cyanomethyl)-11-methyl-14-[methyl-[rac-(2S)-4-amino-2-[[2-(3,4-dibutylphenyl)-4,6-dimethyl-pyrimidine-5-carbonyl]amino]butanoyl]amino]-10,13-dioxo-9,12-diazatricyclo[13.3.1.12,6]icosa-1(18),2(20),3,5,15(19),16-hexaene-8-carboxamide] | 0.12 | 0.016

Further lines, results first:

MIC [1] [µM] | MIC [2] [µM] | SMILES
0.14 | 0.012 | Cc1nc(-c2ccc(C(C)(C)C)cc2)nc(C)c1C(=O)N[C@@H](CCN)C(=O)N(C)[C@@H]1C(=O)N[C@@H](C)C(=O)N[C@H](C(=O)NCC#N)Cc2ccc(OCCN)c(c2)-c2cc1ccc2OCCN (racemic) [Compound 253, rac-(8S,11S,14S)-3,18-bis(2-aminoethoxy)-N-(cyanomethyl)-11-methyl-14-[methyl-[rac-(2S)-4-amino-2-[[2-(4-tert-butylphenyl)-4,6-dimethyl-pyrimidine-5-carbonyl]amino]butanoyl]amino]-10,13-dioxo-9,12-diazatricyclo[13.3.1.12,6]icosa-1(18),2(20),3,5,15(19),16-hexaene-8-carboxamide]
0.24 | 0.061 | Cc1nc(-c2ccc(C(C)(C)C)cc2)nc(C)c1C(=O)N[C@@H](CCN)C(=O)N(C)[C@@H]1C(=O)N[C@@H](C)C(=O)N[C@H](C(=O)NCC#N)Cc2ccc(O)c(c2)-c2cc1ccc2OCCN (racemic) [Compound 254, rac-(8S,11S,14S)-18-(2-aminoethoxy)-N-(cyanomethyl)-3-hydroxy-11-methyl-14-[methyl-[rac-(2S)-4-amino-2-[[2-(4-tert-butylphenyl)-4,6-dimethyl-pyrimidine-5-carbonyl]amino]butanoyl]amino]-10,13-dioxo-9,12-diazatricyclo[13.3.1.12,6]icosa-1(18),2(20),3,5,15(19),16-hexaene-8-carboxamide]
0.45 | 0.079 | CCc1ccc(-c2nc(C)c(C(=O)N[C@@H](CCN)C(=O)N(C)[C@@H]3C(=O)N[C@@H](C)C(=O)N[C@H](C(=O)NCC#N)Cc4ccc(OCCN)c(c4)-c4cc3ccc4OCCN)c(C)n2)cc1 (racemic) [Compound 260, rac-(8S,11S,14S)-3,18-bis(2-aminoethoxy)-N-(cyanomethyl)-11-methyl-14-[methyl-[rac-(2S)-4-amino-2-[[2-(4-ethylphenyl)-4,6-dimethyl-pyrimidine-5-carbonyl]amino]butanoyl]amino]-10,13-dioxo-9,12-diazatricyclo[13.3.1.12,6]icosa-1(18),2(20),3,5,15(19),16-hexaene-8-carboxamide]
0.1 | 0.014 | CCC(C)(C)c1ccc(-c2nc(C)c(C(=O)N[C@@H](CCN)C(=O)N(C)[C@@H]3C(=O)N[C@@H](C)C(=O)N[C@H](C(=O)NCC#N)Cc4ccc(OCCN)c(c4)-c4cc3ccc4OCCN)c(C)n2)cc1 (racemic) [Compound 261, rac-(8S,11S,14S)-3,18-bis(2-aminoethoxy)-N-(cyanomethyl)-11-methyl-14-[methyl-[rac-(2S)-4-amino-2-[[2-[4-(1,1-dimethylpropyl)phenyl]-4,6-dimethyl-pyrimidine-5-carbonyl]amino]butanoyl]amino]-10,13-dioxo-9,12-diazatricyclo[13.3.1.12,6]icosa-1(18),2(20),3,5,15(19),16-hexaene-8-carboxamide]
0.53 | 0.016 | Cc1nc(-c2cccc(C(C)(C)C)c2)nc(C)c1C(=O)N[C@@H](CCN)C(=O)N(C)[C@@H]1C(=O)N[C@@H](C)C(=O)N[C@H](C(=O)NCC#N)Cc2ccc(OCCN)c(c2)-c2cc1ccc2OCCN (racemic) [Compound 263, rac-(8S,11S,14S)-3,18-bis(2-aminoethoxy)-N-(cyanomethyl)-11-methyl-14-[methyl-[rac-(2S)-4-amino-2-[[2-(3-tert-butylphenyl)-4,6-dimethyl-pyrimidine-5-carbonyl]amino]butanoyl]amino]-10,13-dioxo-9,12-diazatricyclo[13.3.1.12,6]icosa-1(18),2(20),3,5,15(19),16-hexaene-8-carboxamide]
1 | 0.39 | COC(C)(C)c1ccc(-c2nc(C)c(C(=O)N[C@@H](CCN)C(=O)N(C)[C@@H]3C(=O)N[C@@H](C)C(=O)N[C@H](C(=O)NCC#N)Cc4ccc(OCCN)c(c4)-c4cc3ccc4OCCN)c(C)n2)cc1 (racemic) [Compound 267, rac-(8S,11S,14S)-3,18-bis(2-aminoethoxy)-N-(cyanomethyl)-11-methyl-14-[methyl-[rac-(2S)-4-amino-2-[[2-[4-(1-methoxy-1-methyl-ethyl)phenyl]-4,6-dimethyl-pyrimidine-5-carbonyl]amino]butanoyl]amino]-10,13-dioxo-9,12-diazatricyclo[13.3.1.12,6]icosa-1(18),2(20),3,5,15(19),16-hexaene-8-carboxamide]
